Measured values from paper PMC6368337, “GluClR-mediated inhibitory postsynaptic currents reveal targets for ivermectin and potential mechanisms of ivermectin resistance” (PLoS Pathogens, 2019).

Legend:
α GluClRs = test: IPSC recording in HEK293-neuron heteroculture, α GluClRs; assay type: cell-based, H. contortus; conditions: 5 nM IVM
Procedure: cDNAs encoding the α (avr-14b) (pcDNA 3.1+) or β (pUNIV) GluClR subunits of H. contortus were nuclear injected into oocytes (NASCO, WI USA) or transfected into HEK293AD cells (CellBank Australia) using a calcium phosphate-DNA co-precipitate method. Synapse formation between neurons and HEK293 cells was promoted by co-transfecting neuroligin 2A or 1B and the cDNA encoding CD4 surface antigen was also added to the transfection mixture so as to identify transfected cells. The oocytes and HEK cells were used for experiments 2–3 days after the introduction of the cDNAs. All experiments were done at room temperature (22 ± 1°C).
Primary neuronal cultures were prepared from cortices of E18 rat embryos, (University of Queensland Biological Services), which were triturated and plated at 100,000 cells per 18-mm poly-D-lysine-coated coverslip in DMEM with 10% fetal bovine serum. After 24 h the entire medium was replaced with Neurobasal medium that included 2% B27 and 1% GlutaMAX supplements. After one week half of this medium was replaced and the neurons were allowed to grow in vitro for 3–5 weeks before introducing the transfected HEK293 cells. Recordings of synaptic currents were done in whole-cell configuration at ‐70 mV using an Axopatch 200B amplifier (Molecular Devices), filtered at 5 kHz and digitized at 20 kHz using Clampex (pClamp 10 suite, Molecular Devices) via a Digidata 1440A digitizer.

Lipophilicity (logP) = assay type: physicochemical
β GluClRs = β GluClRs (Haemonchus contortus, UniProt P91730); test: Single channel recording, outside-out patches, β GluClRs; assay type: cell-based, H. contortus; conditions: 2 μM glutamate plus 5 nM IVM
Sequence of β GluClRs (P91730 19-432): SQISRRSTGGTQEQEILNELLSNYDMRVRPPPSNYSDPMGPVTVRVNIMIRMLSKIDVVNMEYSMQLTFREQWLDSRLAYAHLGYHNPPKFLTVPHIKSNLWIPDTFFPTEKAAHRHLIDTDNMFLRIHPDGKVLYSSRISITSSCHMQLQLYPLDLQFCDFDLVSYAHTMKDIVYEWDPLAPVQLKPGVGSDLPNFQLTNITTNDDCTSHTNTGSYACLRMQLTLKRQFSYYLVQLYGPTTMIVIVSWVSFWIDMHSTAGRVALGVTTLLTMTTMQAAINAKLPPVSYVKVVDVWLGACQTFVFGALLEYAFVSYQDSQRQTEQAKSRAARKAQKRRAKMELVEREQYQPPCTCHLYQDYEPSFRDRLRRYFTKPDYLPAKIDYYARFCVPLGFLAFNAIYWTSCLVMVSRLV
Text: To explore whether a similar mechanism applies to β-containing GluClRs, we recorded single receptor currents in excised patches from cells transfected with either the α and β subunits (1:1) or the β subunit alone. […] By contrast, patches from cells transfected with the β subunit alone invariably opened to an amplitude of 0.4 pA (Fig 6C). Amplitude histograms confirmed two amplitude levels for αβ GluClRs and a single amplitude for the β GluClRs (Fig 6D). […] We infer that the αβ GluClRs that open to 0.7 pA likely contain a greater proportion of β subunits. This is consistent with β GluClRs having the smallest amplitude and α GluClRs having the greatest amplitude (1.8 pA) under similar recording conditions. The calculated conductance values for the corresponding amplitudes for αβ GluClRs was 15.2 pS and 8.9 pS and for the β GluClRs was 5.1 pS.
Single-channel currents were recorded from outside-out excised patches at a clamped potential of −70 mV. The single channel conductance was calculated by dividing the mean current by the net driving force at a clamped potential of ‐70 mV, after accounting for reversal and liquid junction potentials. Excised patches were continuously perfused via a gravity-fed double-barrelled glass tube, which contained extracellular bath solution containing (in mM), 140 NaCl, 5 KCl, 1 MgCl2, 2 CaCl2, 10 HEPES, and 10 D-glucose and titrated to pH 7.4. Glutamate and IVM were dissolved in this extracellular solution. Recording electrodes were pulled from borosilicate glass (G150F-3; Warner Instruments), coated with a silicone elastomer (Sylgard-184; Dow Corning) and heat-polished to a final tip resistance of 4–15 MΩ when filled with an intracellular solution containing (in mM) 145 CsCl, 2 MgCl2, 2 CaCl2, 10 HEPES, and 5 EGTA, pH 7.4. […] A 10 mM stock of IVM (Sigma-Aldrich) was dissolved in 100% DMSO and kept frozen at ‐20°C. Fresh working stocks of IVM at 5 nM were prepared by dissolving the appropriate quantity directly in extracellular solution. 100% DMSO when dissolved in extracellular solution alone at the same concentration as was present in working solutions containing 5 nM IVM had no effect on patches excised from cells transfected with GluClRs or from untransfected cells.
Currents were recorded using an Axopatch 200B amplifier (Molecular Devices), filtered at 5 kHz and digitized at 20 kHz using Clampex (pClamp 10 suite, Molecular Devices) via a Digidata 1440A digitizer.
Group data were analysed in SigmaPlot 13.0 using one-way ANOVAs, where p < 0.05 was taken as the significance threshold and expressed as mean ± SEM. Tests for normally distributed data are built into the SigmaPlot software. Confocal images were captured and analysed with Zen 2012 SP2 (Zeiss) software. Oocyte concentration-response data were fit to a Hill equation to obtain an EC50 and Hill co-efficient for each oocyte recording. These parameters were then averaged across multiple oocyte experiments of the same type. Single channel recordings were analysed in QuB software. […] Patches yielded between 30–250 individual active periods. […] The selected critical times eliminated periods of receptor desensitisation while retaining singe receptor active periods. Mean active period duration and intra-activation open probability was estimated from each patch. Group means were obtained by averaging across multiple patches for each recording condition.

SMILES: CC[C@H](C)[C@H]1O[C@]2(CC[C@@H]1C)C[C@@H]1C[C@@H](C/C=C(\C)[C@@H](O[C@H]3C[C@H](OC)[C@@H](O[C@H]4C[C@H](OC)[C@@H](O)[C@H](C)O4)[C@H](C)O3)[C@@H](C)/C=C/C=C3\CO[C@@H]4[C@H](O)C(C)=C[C@@H](C(=O)O1)[C@]34O)O2 [IVM, Ivermectin]
- IPSC activation (10–90% rise) time (α GluClRs; 15 minutes): 19 ± 1 ms
- peak IPSC amplitude (α GluClRs; 15 minutes): 122 ± 39 pA
- IPSC decay time constant (α GluClRs; 15 minutes after start of application, −70 mV): 100 ± 3 ms
- logP (Lipophilicity (logP)): 5.4
- intra-activation open probability (PO) (β GluClRs): 0.62 ± 0.04
- mean active period duration (β GluClRs): 120 ± 21 ms
